Target: BACE1 (Homo sapiens, UniProt P56817)
Test: cell-based FRET peptide cleavage assay, HEK-293 cells

Chain of BACE1 (P56817 46-501): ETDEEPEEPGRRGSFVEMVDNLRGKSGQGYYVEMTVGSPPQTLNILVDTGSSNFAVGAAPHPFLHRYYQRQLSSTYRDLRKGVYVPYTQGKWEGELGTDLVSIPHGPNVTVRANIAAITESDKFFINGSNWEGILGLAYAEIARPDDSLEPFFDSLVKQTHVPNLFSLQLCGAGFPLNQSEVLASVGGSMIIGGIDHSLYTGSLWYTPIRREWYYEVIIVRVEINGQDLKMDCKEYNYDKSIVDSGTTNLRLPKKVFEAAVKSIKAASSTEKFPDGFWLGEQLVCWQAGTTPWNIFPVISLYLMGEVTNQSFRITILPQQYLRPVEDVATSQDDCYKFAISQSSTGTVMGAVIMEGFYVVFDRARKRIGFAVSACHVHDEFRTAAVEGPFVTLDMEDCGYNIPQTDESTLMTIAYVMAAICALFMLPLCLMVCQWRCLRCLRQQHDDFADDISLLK

| IC50 [nM] | SMILES |
| --- | --- |
| 59 | COC(=O)CC[C@@]1(C)[C@H](C(C)(C)O)CC[C@@]2(C)[C@H]1C[C@@]1(C)C(=O)[C@]2(C)C(=O)C(C(=O)OC)=C1C [compound 2, asperterpene B] |
| 78 | COC(=O)C1=C(C)[C@@]2(C)C[C@H]3[C@@]4(C)CCC(=O)C(C)(C)[C@@H]4CC[C@]3(C)[C@@](C)(C1=O)C2=O [compound 1, asperterpene A] |
